Measured values published in the METLIN SMRT retention time set (Domingo-Almenara et al. 2019).

Test: gradient 5% acetonitrile 3 min, to 50% in 2 min, to 85% in 15 min, held 3 min, 100 µL/min
Conditions: column: Zorbax Extend-C18 2.1 x 50 mm; eluents: water / acetonitrile, 0.1% formic acid
Method in brief: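 Using water and acetonitrile that each contained 0.1% formic acid, mixtures of ~100 pure standards were separated at 100 μL/min on a Zorbax Extend-C18 column (2.1 × 50 mm, 1.8 μm). The HPLC fed a quadrupole time-of-flight mass spectrometer working in positive and negative ionization mode, with dead and dwell volumes of 40 μL and 900 μL. Data were acquired over 3 months. Retention time was read from computationally picked adduct peaks after manual inspection of each.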

COc1ccc(NS(=O)(=O)c2ccc3c(c2)C(=O)N(C)c2ncccc2O3)cc1Cl
RP-LC retention time: 918 s

Cc1ccc2nc(C(=O)NCc3ccc(F)cc3)cn2c1
RP-LC retention time: 645 s

COc1ccccc1-c1nc(C2CCN(C(=O)c3n[nH]c4c3CCCC4)CC2)no1
RP-LC retention time: 759 s

O=C(Nc1ccc2c(c1)OCCO2)N1CCCC(CN2CCOCC2)CC1 (stereo unspecified)
RP-LC retention time: 590 s

CCN(CC)CCNC(=O)CSCc1ccc(C)cc1
RP-LC retention time: 631 s

CCOC(=O)c1cccc(N2C=C(C(=O)OC)S(=O)(=O)c3ccc(F)cc32)c1
RP-LC retention time: 908 s

Cc1ccc(NC(=O)C2CC(=O)N(c3n[nH]c4ccccc34)C2)nc1 (stereo unspecified)
RP-LC retention time: 594 s

O=C(CSc1ccc(N2CCCC(C(=O)NC3CC3)C2)nn1)Nc1cc(F)ccc1F (stereo unspecified)
RP-LC retention time: 617 s

COC(=O)Nc1ccc(CC(=O)NCC(F)(F)F)cc1
RP-LC retention time: 639 s

O=C(c1ccc(F)c(F)c1)N1CCC2(CC1)N=C(c1cccc(Br)c1)NO2
RP-LC retention time: 935 s

COC(=O)c1ccc2c(=O)n(-c3cc(OC)cc(OC)c3)c(N3CCCCCC3)nc2c1
RP-LC retention time: 1220 s

Cc1csc(-c2cc(S(=O)(=O)Nc3cccc(Cl)c3)c(C)s2)n1
RP-LC retention time: 1060 s

CCCc1nnsc1C(=O)NCc1nc(C)no1
RP-LC retention time: 656 s

Cc1ncsc1CN1CC(c2ncc(C)n2Cc2ccccc2)C1
RP-LC retention time: 559 s

CCn1cnc(S(=O)(=O)N2CCC(C(=O)Nc3ccc(F)cc3)CC2)c1
RP-LC retention time: 709 s

CCc1ccccc1N(CC)C(=O)C1CCCN(c2ncnc3c2nc2n3CCCCC2)C1 (stereo unspecified)
RP-LC retention time: 964 s

CC(C)NCc1ccc(-c2ccccc2)o1
RP-LC retention time: 612 s

COc1cccc(CNC(=O)CN2C(=O)NC3(CCC(C(C)(C)C)CC3)C2=O)c1OC (stereo unspecified)
RP-LC retention time: 943 s

Cc1cccc(N2CCN(C(=O)c3ccc(CN4CCN(C(C)C)C(=O)C4=O)cc3)CC2)c1
RP-LC retention time: 759 s

COCCNC(=O)C1CCN(c2cnc(N3CCCC3)nc2)CC1
RP-LC retention time: 580 s

CCOc1cc(-c2ccccc2)nc2ccc(NC(=O)c3cccs3)cc12
RP-LC retention time: 754 s

Cc1ccc(-c2nnc(SCc3cccc(Cl)c3)o2)cc1
RP-LC retention time: 1210 s

CCN(CC)CCNC(=O)c1c(C)[nH]c(/C=C2\C(=O)Nc3ccc(F)cc32)c1C
RP-LC retention time: 700 s

O=C(Nc1ccc2c(c1)N(S(=O)(=O)c1ccccc1)CCC2)c1ccc2c(c1)OCO2
RP-LC retention time: 834 s

CC(C)c1cc(-c2nnc3sc(COc4ccc(Cl)cc4)nn23)n[nH]1
RP-LC retention time: 900 s

O=C(Cn1nc2n(c1=O)CCCCC2)Nc1cccc(Cl)c1
RP-LC retention time: 730 s

CN(C)c1nc2cc(C(=O)N3CCOCC3)sc2n1-c1ccccc1
RP-LC retention time: 614 s

COCCNC(=O)c1cn(C)c2ncccc12
RP-LC retention time: 582 s

CCc1ccc(NC(=O)c2cn3c(n2)CCCC3)cc1
RP-LC retention time: 644 s

Cc1cc(C(=O)N2CCCn3ccnc3C2C2CCCC2)on1 (stereo unspecified)
RP-LC retention time: 599 s

O=C(Nc1cccc(Cl)c1)Nc1nccn(-c2ccc3c(c2)CCC3)c1=O
RP-LC retention time: 1170 s

Cc1ccc(-n2nc(N3CCCN(S(=O)(=O)c4ccccc4)CC3)ccc2=O)cc1C
RP-LC retention time: 947 s

CCCC(NC(=O)c1cccc(Cl)c1)C(=O)Nc1nc2ccccc2[nH]1 (stereo unspecified)
RP-LC retention time: 742 s

COc1cc(=O)n(-c2ccccc2)nc1C(=O)N1c2ccc(F)cc2CCC1C (stereo unspecified)
RP-LC retention time: 866 s

CCN1C(=O)Cc2ccccc2C1C(=O)NCc1ccc(Br)cc1 (stereo unspecified)
RP-LC retention time: 802 s

CN(CC(=O)Nc1ccc(S(N)(=O)=O)cc1)c1nc2ccccc2s1
RP-LC retention time: 662 s

COCC(C)(O)CNC(=O)c1ccc(F)c(F)c1 (stereo unspecified)
RP-LC retention time: 634 s

COc1cc(OC)c(NC(=O)C2CCCN(C(=O)c3cc(C)cc(C)c3)C2)cc1Cl (stereo unspecified)
RP-LC retention time: 1010 s

COc1ccc(Cl)cc1N1C=C(C#N)S(=O)(=O)c2ccc(F)cc21
RP-LC retention time: 968 s

CCOC(=O)C1CCN(c2ncc(C(=O)Nc3ccc(OC)cc3)c(N)n2)CC1
RP-LC retention time: 698 s

CCc1ccc(-c2cc(C(F)(F)F)on2)cc1S(=O)(=O)N1CCCCC1CC (stereo unspecified)
RP-LC retention time: 749 s

O=C(NCc1ccc(Cl)cc1)C1CCN(c2cn[nH]c(=O)c2)CC1
RP-LC retention time: 669 s

Cc1ccc(-c2cc(N3CCOCC3)c3cc(NC(=O)C4CC4)ccc3n2)cc1
RP-LC retention time: 701 s

CC1(C)CC(O)CC(C)(C)N1CC(O)COCCOc1ccc(F)cc1 (stereo unspecified)
RP-LC retention time: 565 s

Cc1noc(C)c1Cc1ccc(C(=O)N2CCC(N3C[C@H](O)C[C@H]3C(=O)NC3CCCCC3)CC2)o1
RP-LC retention time: 656 s

Cc1cc(C)cc(N2C(=O)N(CC(=O)N3CCC(C)CC3)C3CS(=O)(=O)CC32)c1 (stereo unspecified)
RP-LC retention time: 816 s

Cc1[nH]c2ccccc2c1C(=O)C(=O)NC1CC(=O)N(c2ccccc2)C1 (stereo unspecified)
RP-LC retention time: 711 s

CCN1C(=O)CCc2cc(NS(=O)(=O)c3ccc4c(c3)OCCO4)ccc21
RP-LC retention time: 794 s

CCC(=O)Nc1ccc(C2(C(=O)N3CCN(c4cccc(C)c4)CC3)CCC2)cc1
RP-LC retention time: 908 s

O=C1NC2CCCCC2C2=NC(CN3CCN(c4ccccc4)CC3)CN12 (stereo unspecified)
RP-LC retention time: 655 s

CCN(Cc1ccc(OC)cc1)Cc1cc(=O)c2cc(F)ccc2[nH]1
RP-LC retention time: 613 s

CCCNC(=O)C1CCN(c2ccc(SCC(=O)Nc3ccc(Cl)cc3)nn2)CC1
RP-LC retention time: 655 s

CCOc1ccccc1OCc1nn2c(-c3ccccn3)nnc2s1
RP-LC retention time: 800 s

Cc1cc(C)cc(NC(=O)Cn2nc(C(=O)N3CCOCC3)c3ccccc32)c1
RP-LC retention time: 819 s

Cc1ccc(Nc2c(-c3ccc(Cl)cc3)nc3ncccn23)cc1C
RP-LC retention time: 942 s

Cc1ccc(NC(=O)C2CC(=O)N(CCc3c[nH]c4ccc(F)cc34)C2)c(C)c1 (stereo unspecified)
RP-LC retention time: 847 s

Cc1cncn(CC(=O)Nc2ccccc2Cl)c1=O
RP-LC retention time: 608 s

Cc1cccc(-c2nc3ccccn3c2NC(=O)NCc2ccc(F)cc2)c1
RP-LC retention time: 714 s

Cc1ccc(C2Cn3cnc(C(=O)N4CCC(C(=O)NC(C)c5ccccc5)CC4)c3CO2)cc1 (stereo unspecified)
RP-LC retention time: 756 s

Cc1ccc2c(c1)sc1nc(C)c(S(=O)(=O)Nc3ccc(Cl)cc3)c(=O)n12
RP-LC retention time: 1160 s

Cc1cc2[nH]c(C(=O)Nc3ccc(Cl)cc3Cl)c(CN3CCOCC3)c2s1
RP-LC retention time: 759 s

Clc1cc(Cl)cc(-c2ccc(CNCc3ccco3)o2)c1
RP-LC retention time: 784 s

COc1ccc(-c2nc3cc(C)ccn3c2NC(=O)c2cccc(C(F)(F)F)c2)cc1OC
RP-LC retention time: 729 s

COC(=O)C1=CN(C2CC2)c2cc(N3CCCCCC3)c(F)cc2S1(=O)=O
RP-LC retention time: 980 s

CC(C)c1cc(C(=O)N2Cc3ccc(CN4CCN(C)CC4)cc3C2)c(O)cc1O
RP-LC retention time: 654 s

O=C1COc2ccc(S(=O)(=O)N3CCC(C(=O)Nc4ccccc4)CC3)cc2N1
RP-LC retention time: 759 s

CC(=O)N1CCCC(c2nc(CNC(=O)C(C)C)cs2)C1 (stereo unspecified)
RP-LC retention time: 609 s

CCn1ccc2c(cc(C(=O)Nc3c(C)cccc3C)n2C)c1=O
RP-LC retention time: 721 s

COc1ccc2cc3c(=O)n(-c4ccc(C(=O)O)cc4)nc-3oc2c1
RP-LC retention time: 891 s

COc1ccc(CC(=O)N2CCCC2c2cc(C)on2)cc1 (stereo unspecified)
RP-LC retention time: 736 s

O=C(CN1CCC2(CC1)N=C(c1ccc(Cl)cc1)C(=O)N2)Nc1cc(F)ccc1F
RP-LC retention time: 696 s

O=S(=O)(NCC(c1ccco1)N1CCN(c2ccccc2F)CC1)c1cccs1 (stereo unspecified)
RP-LC retention time: 672 s

Cc1nnc2c(NC(=O)c3ccc(Cl)s3)cccn12
RP-LC retention time: 729 s

CCCOc1ccc(S(=O)(=O)n2cccn2)cc1C
RP-LC retention time: 986 s

CC(C)n1c(N2CCN(C(=O)Cc3c[nH]c4ccccc34)CC2)cc(=O)n(C(C)C)c1=O
RP-LC retention time: 824 s

Cc1nc(-c2cc(S(=O)(=O)Nc3cccc(Br)c3)c(C)s2)cs1
RP-LC retention time: 1050 s

COc1cccc(N2CC(C(=O)Nc3nnc(-c4csc(C)n4)o3)CC2=O)c1 (stereo unspecified)
RP-LC retention time: 817 s

O=c1ccc(-c2ccccc2)nn1CCc1nc(-c2ccc3c(c2)OCO3)no1
RP-LC retention time: 900 s

Cc1cc(-c2nnc(C3CCC3)o2)c(C)n1CC(=O)NCc1cc(F)cc(F)c1
RP-LC retention time: 864 s

COc1ccccc1-c1noc(C2CCCN2C(=O)c2ccccn2)n1 (stereo unspecified)
RP-LC retention time: 725 s

COc1ccc(-c2nc(-c3cccc(-c4ccnn4C)c3)no2)cc1F
RP-LC retention time: 1130 s

COc1cc(C(=O)NC2CCN(c3cc(-c4ccc(F)cc4)[nH]n3)C2)cc(OC)c1OC (stereo unspecified)
RP-LC retention time: 706 s

Cc1c(C(=O)N2CCCCCC2)sc2ncn(CC(=O)N3CC(C)CC(C)C3)c(=O)c12 (stereo unspecified)
RP-LC retention time: 891 s

O=C(Cn1cc(C(=O)C2CC2)c2ccccc21)NCc1ccc2c(c1)OCCCO2
RP-LC retention time: 831 s

O=C(Nc1cnc(-c2ccccc2)nc1)c1cccc(Cl)c1
RP-LC retention time: 1050 s

Cc1nc(C)c(C(=O)Nc2cc(Cl)ccc2C)s1
RP-LC retention time: 837 s

CN1CC(=O)N(CC(=O)N2CCN(c3ccc(Cl)cc3)CC2)c2ccccc2C1=O
RP-LC retention time: 746 s

CCOC(=O)CCCn1c(=O)c2cccn2c2ccc(F)cc21
RP-LC retention time: 847 s

O=C(NCC(c1ccco1)N1CCN(c2ccccc2)CC1)Oc1ccccc1 (stereo unspecified)
RP-LC retention time: 625 s

COc1ccc(NC(=O)N2CCC(n3c(-c4ccc(OC)cc4)nc4cccnc43)C2)cc1 (stereo unspecified)
RP-LC retention time: 709 s

COC(=O)c1ncn2c1C(=O)N(Cc1ccc(F)cc1)C(C)(C(=O)NCc1ccc(C)cc1)C2 (stereo unspecified)
RP-LC retention time: 772 s
